From patent publication US20110172244A1 (IRM LLC, priority 2008, published 2011)

biological target: T1, human GPR119 (Homo sapiens, UniProt Q8TDV5); assay: Cyclic AMP assay in stable cell line (Flp-In-CHO-hGPR119, HTRF); format: cell-based; conditions: Flp-In-CHO-hGPR119 cells, cAMP HTRF, 1 mM IBMX, 30 minutes at 37° C.; read-out: CHO-GPR119-HTRF (3158) EC50
T1 construct: expressed in transfected cells
T1 sequence (Q8TDV5 1-335): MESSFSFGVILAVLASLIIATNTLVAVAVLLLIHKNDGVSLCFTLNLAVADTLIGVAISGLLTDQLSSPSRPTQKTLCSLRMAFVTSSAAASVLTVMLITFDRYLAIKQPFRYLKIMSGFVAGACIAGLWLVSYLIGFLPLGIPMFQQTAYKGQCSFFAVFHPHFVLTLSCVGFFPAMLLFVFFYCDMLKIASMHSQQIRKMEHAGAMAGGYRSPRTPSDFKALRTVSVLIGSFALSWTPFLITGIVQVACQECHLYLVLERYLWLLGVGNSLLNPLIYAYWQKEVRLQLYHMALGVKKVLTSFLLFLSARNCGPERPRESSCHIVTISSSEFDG
Procedure: Generation of Stable Cell Line
Flp-In-CHO cells (Invitrogen, Cat. #R758-07) are maintained in Ham's F12 medium supplemented with 10% fetal bovine serum, 1% antibiotic mixture and 2 mM L-glutamine. The cells are transfected with a DNA mixture containing human GPR119 in pcDNA5/FRT vector and the pOG44 vector (1:9) using Fugene6 (Roche), according to the manufacturer's instruction. After 48 hours, the medium is changed to medium supplemented with 400 μg/ml hygromycin B to initiate the selection of stably transfected cells.
Cyclic AMP Assay in Stable Cell Line
To test the activity of compounds of the invention, Flp-In-CHO-hGPR119 cells are harvested and resuspended in DMEM plus 3% lipid-depleted fetal bovine serum. Forth μl of cells are plated in 384 well plates at a density of 15,000 cells/well. IBMX (3-isobutyl-1-methyl-xanthine) is added to the cells to a final concentration of 1 mM, followed by the addition of 500 nl of the compound to be tested. The cells are incubated at 37° C. for 30 minutes. Equal volume (20 μl) of the HTRF reagents, anti-cAMP-Cryptate and cAMP-XL665, are added to the cells. The plates are incubated at room temperature for 1 hour and read on a HTRF reader according to the manufacturer's instruction.

Row | EC50 [nM] | SMILES
1 | 12 | O=C(c1[nH]c2ccc(F)cc2c1S(=O)(=O)c1ccc(Cl)cc1)N1CCC(Cc2ccccc2)CC1 [Example A1, (4-benzylpiperidin-1-yl)(3-(4-chlorophenylsulfonyl)-5-fluoro-1H-indol-2-yl)methanone]
2 | 7 | O=C(c1[nH]c2ccccc2c1S(=O)(=O)c1ccc(Cl)cc1)N1CCN(Cc2c(F)cccc2Cl)CC1 [Example A2, (4-(2-chloro-6-fluorobenzyl)piperazin-1-yl)(3-(4-chlorophenylsulfonyl)-1H-indol-2-yl)methanone]
3 | 9 | Cc1ccc(OC2CCN(C(=O)c3[nH]c4ccccc4c3S(=O)(=O)c3ccc(Cl)cc3)CC2)cc1 [Example A3, (3-(4-chlorophenylsulfonyl)-1H-indol-2-yl)(4-(p-tolyloxy)piperidin-1-yl)methanone]
4 | 10 | O=C(c1[nH]c2ccccc2c1S(=O)(=O)c1ccc(Cl)cc1)N1CCC(Oc2ccc(C(F)(F)F)cc2)CC1 [Example A4, (3-(4-chlorophenylsulfonyl)-1H-indol-2-yl)(4-(4-(trifluoromethyl)phenoxy)piperidin-1-yl)methanone]
5 | 17 | O=C(c1[nH]c2ccccc2c1S(=O)(=O)c1ccc(Cl)cc1)N1CCN(Cc2ccc(Cl)cc2)CC1 [Example A5, (4-(4-chlorobenzyl)piperazin-1-yl)(3-(4-chlorophenylsulfonyl)-1H-indol-2-yl)methanone]
6 | 18 | Cc1ccc(SC2CCN(C(=O)c3[nH]c4ccccc4c3S(=O)(=O)c3ccc(Cl)cc3)CC2)cc1 [Example A6, (3-(4-chlorophenylsulfonyl)-1H-indol-2-yl)(4-(p-tolylthio)piperidin-1-yl)methanone]
7 | 18 | O=C(c1[nH]c2ccccc2c1S(=O)(=O)c1ccc(Cl)cc1)N1CCC(CCc2ccccc2)CC1 [Example A7, (3-(4-chlorophenylsulfonyl)-1H-indol-2-yl)(4-phenethylpiperidin-1-yl)methanone]
8 | 32 | O=C(c1[nH]c2ccccc2c1S(=O)(=O)c1ccc(Cl)cc1)N1CCN(CC2CCCCC2)CC1 [Example A11, (3-(4-chlorophenylsulfonyl)-1H-indol-2-yl)(4-(cyclohexylmethyl)piperazin-1-yl)methanone]
9 | 40 | O=C(c1[nH]c2ccccc2c1S(=O)(=O)c1ccc(Cl)cc1)N1CCN(Cc2ccc3c(c2)OCO3)CC1 [Example A12, (4-(benzo[d][1,3]dioxol-5-ylmethyl)piperazin-1-yl)(3-(4-chlorophenylsulfonyl)-1H-indol-2-yl)methanone]
10 | 533 | CN(Cc1ccccc1)C1CCN(C(=O)c2[nH]c3ccccc3c2S(=O)(=O)c2ccc(Cl)cc2)CC1 [Example A19, (4-(benzyl(methyl)amino)piperidin-1-yl)(3-(4-chlorophenylsulfonyl)-1H-indol-2-yl)methanone]
11 | 192 | CN(CCOc1ccccc1)C(=O)c1[nH]c2ccccc2c1S(=O)(=O)c1ccc(Cl)cc1 [Example A20, 3-(4-chlorophenylsulfonyl)-N-methyl-N-(2-phenoxyethyl)-1H-indole-2-carboxamide]
12 | 435 | O=C(c1[nH]c2ccccc2c1S(=O)(=O)c1ccc(Cl)cc1)N1CCN(Cc2ccncc2)CC1 [Example A22, (3-(4-chlorophenylsulfonyl)-1H-indol-2-yl)(4-(pyridin-4-ylmethyl)piperazin-1-yl)methanone]
13 | 396 | O=C(NCCCCc1ccccc1)c1[nH]c2ccccc2c1S(=O)(=O)c1ccc(Cl)cc1 [Example A23, 3-(4-chlorophenylsulfonyl)-N-(4-phenylbutyl)-1H-indole-2-carboxamide]
14 | 574 | O=C(c1[nH]c2ccccc2c1S(=O)(=O)c1ccc(Cl)cc1)N1CCCCC1 [Example A24, (3-(4-chlorophenylsulfonyl)-1H-indol-2-yl)(piperidin-1-yl)methanone]
15 | 54 | O=C(c1oc2ccccc2c1S(=O)(=O)c1ccc(Cl)cc1)N1CCC(Oc2ccc(C(F)(F)F)cc2)CC1 [Example A29, (3-(4-Chlorophenylsulfonyl)benzofuran-2-yl)(4-(4-(trifluoromethyl)phenoxy)piperidin-1-yl)methanone]
16 | 187 | O=C(c1oc2ccccc2c1S(=O)(=O)c1ccc(Cl)cc1)N1CCN(Cc2ccccc2)CC1 [Example A30, (4-benzylpiperazin-1-yl)(3-(4-chlorophenylsulfonyl)benzofuran-2-yl)methanone]
17 | 22 | O=C(c1[nH]c2c(F)cccc2c1S(=O)(=O)c1ccc(Cl)cc1)N1CCC(Cc2ccccc2)CC1 [Example B1, (4-benzylpiperidin-1-yl)(3-(4-chlorophenylsulfonyl)-7-fluoro-1H-indol-2-yl)methanone]
18 | 210 | O=C(c1[nH]c2ccccc2c1S(=O)(=O)Cc1ccccc1)N1CCC(Cc2ccccc2)CC1 [Example B2, (4-benzylpiperidin-1-yl)(3-benzylsulfonyl-1H-indol-2-yl)methanone]
19 | 755 | O=C(c1[nH]c2ccccc2c1SC1CCCCC1)N1CCC(Cc2ccccc2)CC1 [Example B3, (4-benzylpiperidin-1-yl)(3-(cyclohexylthio)-1H-indol-2-yl)methanone]
20 | 149 | O=C(c1[nH]c2ccccc2c1S(=O)(=O)C1CCCCC1)N1CCC(Cc2ccccc2)CC1 [Example B4]
21 | 169 | Cn1c(C(=O)N2CCC(Cc3ccccc3)CC2)c(S(=O)(=O)c2ccc(Cl)cc2)c2ccccc21 [Example B5, (4-Benzylpiperidin-1-yl)(3-(4-chlorophenylsulfonyl)-1-methyl-1H-indol-2-yl)methanone]
22 | 42 | O=C(c1[nH]c2ccccc2c1S(=O)(=O)CCc1ccccc1)N1CCC(Cc2ccccc2)CC1 [Example B11, (4-benzylpiperidin-1-yl)(3-(phenethylsulfonyl)-1H-indol-2-yl)methanone]
23 | 454 | O=C(c1[nH]c2ccccc2c1Sc1ccccc1)N1CCC(Cc2ccccc2)CC1 [Example C1, (4-Benzylpiperidin-1-yl)(3-(phenylthio)-1H-indol-2-yl)methanone]
24 | 180 | O=C(c1[nH]c2ccccc2c1Sc1ccc(Cl)cc1)N1CCC(Cc2ccccc2)CC1 [Example C2, (4-benzylpiperidin-1-yl)(3-(4-chlorophenylthio)-1H-indol-2-yl)methanone]
